Test results reported in patent publication US12410152B2, “Oxazole and thioazole-type cullin ring ubiquitin ligase compounds and uses thereof” (Proxygen GmbH, priority 2019, dated 2025).

Columns and labels:
Type in all cases: cell-based
UBE2M mutant KBM7 cells = assay: cells
Procedure: KBM7 cells with the specified genetic backgrounds were grown in IMDM supplemented with 10% FBS and 1% penicillin/streptomycin (pen/strep). AsPC1, HCT116, NCI-H446 and 293T cells were grown in DMEM 10% FBS and 1% pen/strep. MV4; 11, Jurkat and Be (2) C cells were grown in RPMI 10% FBS 1% pen/strep. KBM7, AsPC1 and HCT116 cells expressing Cas9 were generated using the plasmid Lenti_Cas9_Blasti (Addgene #52962). The lentiviral plasmid lentiGuide-Puro (Addgene #52963) was used to express sgRNAs against the genes UBE2M (in KBM7-Cas9, AsPC1-Cas9 and HCT116-Cas9 cells), UBE2G1 (in KBM7-Cas9 cells) and […] (in KBM7-Cas9 cells). The lentiviral plasmid lentiGuide-Puro-IRES-mCherry (modified from Addgene #52963) was used to express sgRNAs against CUL4A (in KBM7-Cas9 cells). The lentiviral plasmid pLenti-PGK-Hygro-DEST-UBE2M was generated by Gateway cloning (empty destination vector Addgene #19066), and used to generate UBE2M^resc KBM7 cells. […]
Following this observation, it was rationalized that novel small molecule degraders can be identified in an unbiased manner, simply by searching for compounds that lose activity in the absence of UBE2M. 2000 small molecules, mostly of unknown function/target, were tested for their antiproliferative effects in human leukemia cells (KBM7). These cells were either transduced with a control sgRNA (KBM7WT), or with an sgRNA targeting UBE2M, leading to a hypomorph (deletion of six amino acids) with a functional impairment (UBE2Mmut).
Finally, a total of structurally similar analogs was tested to unravel structure-activity relationship of the identified molecules. To that end, their anti-cancer activity was assayed in WT cells, as well as KBM7 cells deficient in genes identified in the genome-wide CRISPR screens (UBE2M, CUL4B, UBE2G1). Moreover, the compounds were also tested in AsPC1 pancreatic cancer cells (WT or UBE2Mmut), MV4; 11 and Jurkat leukemia cells, Be (2) C neuroblastoma cells, and NCI-H446 lung cancer cells (Table 3 at the end of this document)
KBM7^WT, mutant KBM7 clones (UBE2M^mut, UBE2M^resc, UBE2G1^mut CUL4A^mut, CUL4B^mut), and 3-day doxycycline pretreated KBM7^iCas9_sgDDB1 cells were seeded at a cell density of 50,000 cells/mL in 96-well plates with DMSO or drug, in triplicates. Drugs used: IC020772.1/IC020772.1X, IC021313.2/IC021313.2X, T6938051/T6938051X or THZ531. Cells were treated for 3 days, after which cell viability was assessed according to manufacturer's protocol (CellTiter Glo, Promega G7570). Survival curves and EC50 values were calculated by best-fit analysis of the log 10 drug concentration to fold change of drug-treated cells over DMSO-treated cells. All survival assays included technical triplicates per sample, per experiment.

[1] = tested on: T1, cyclin K (CCNK) (Homo sapiens); assay: CCNK destabilization/degradation (expression proteomics and Western blot); conditions: wild-type KBM7 cells
T1 construct: endogenous in cells; host or cells: KBM7 cells (WT and UBE2M/CUL4B/UBE2G1 mutant clones)
T1 sequence (O75909 whole entry partner): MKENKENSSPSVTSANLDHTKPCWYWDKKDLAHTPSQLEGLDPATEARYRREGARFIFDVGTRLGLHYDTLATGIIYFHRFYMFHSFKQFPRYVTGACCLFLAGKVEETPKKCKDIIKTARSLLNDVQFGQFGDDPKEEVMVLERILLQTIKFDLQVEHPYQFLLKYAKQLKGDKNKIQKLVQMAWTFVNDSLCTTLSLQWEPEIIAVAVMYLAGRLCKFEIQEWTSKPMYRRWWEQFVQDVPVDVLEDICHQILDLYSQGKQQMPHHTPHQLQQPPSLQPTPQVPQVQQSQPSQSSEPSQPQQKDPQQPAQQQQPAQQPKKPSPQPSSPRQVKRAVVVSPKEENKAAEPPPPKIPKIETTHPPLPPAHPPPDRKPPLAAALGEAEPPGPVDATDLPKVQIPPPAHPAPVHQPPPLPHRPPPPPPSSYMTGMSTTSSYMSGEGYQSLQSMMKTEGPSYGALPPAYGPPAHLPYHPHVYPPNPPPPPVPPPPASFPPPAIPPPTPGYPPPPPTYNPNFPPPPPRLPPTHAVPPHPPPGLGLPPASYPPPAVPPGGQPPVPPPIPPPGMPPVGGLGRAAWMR
T1 sequence (Q9NYV4 whole entry, further chain): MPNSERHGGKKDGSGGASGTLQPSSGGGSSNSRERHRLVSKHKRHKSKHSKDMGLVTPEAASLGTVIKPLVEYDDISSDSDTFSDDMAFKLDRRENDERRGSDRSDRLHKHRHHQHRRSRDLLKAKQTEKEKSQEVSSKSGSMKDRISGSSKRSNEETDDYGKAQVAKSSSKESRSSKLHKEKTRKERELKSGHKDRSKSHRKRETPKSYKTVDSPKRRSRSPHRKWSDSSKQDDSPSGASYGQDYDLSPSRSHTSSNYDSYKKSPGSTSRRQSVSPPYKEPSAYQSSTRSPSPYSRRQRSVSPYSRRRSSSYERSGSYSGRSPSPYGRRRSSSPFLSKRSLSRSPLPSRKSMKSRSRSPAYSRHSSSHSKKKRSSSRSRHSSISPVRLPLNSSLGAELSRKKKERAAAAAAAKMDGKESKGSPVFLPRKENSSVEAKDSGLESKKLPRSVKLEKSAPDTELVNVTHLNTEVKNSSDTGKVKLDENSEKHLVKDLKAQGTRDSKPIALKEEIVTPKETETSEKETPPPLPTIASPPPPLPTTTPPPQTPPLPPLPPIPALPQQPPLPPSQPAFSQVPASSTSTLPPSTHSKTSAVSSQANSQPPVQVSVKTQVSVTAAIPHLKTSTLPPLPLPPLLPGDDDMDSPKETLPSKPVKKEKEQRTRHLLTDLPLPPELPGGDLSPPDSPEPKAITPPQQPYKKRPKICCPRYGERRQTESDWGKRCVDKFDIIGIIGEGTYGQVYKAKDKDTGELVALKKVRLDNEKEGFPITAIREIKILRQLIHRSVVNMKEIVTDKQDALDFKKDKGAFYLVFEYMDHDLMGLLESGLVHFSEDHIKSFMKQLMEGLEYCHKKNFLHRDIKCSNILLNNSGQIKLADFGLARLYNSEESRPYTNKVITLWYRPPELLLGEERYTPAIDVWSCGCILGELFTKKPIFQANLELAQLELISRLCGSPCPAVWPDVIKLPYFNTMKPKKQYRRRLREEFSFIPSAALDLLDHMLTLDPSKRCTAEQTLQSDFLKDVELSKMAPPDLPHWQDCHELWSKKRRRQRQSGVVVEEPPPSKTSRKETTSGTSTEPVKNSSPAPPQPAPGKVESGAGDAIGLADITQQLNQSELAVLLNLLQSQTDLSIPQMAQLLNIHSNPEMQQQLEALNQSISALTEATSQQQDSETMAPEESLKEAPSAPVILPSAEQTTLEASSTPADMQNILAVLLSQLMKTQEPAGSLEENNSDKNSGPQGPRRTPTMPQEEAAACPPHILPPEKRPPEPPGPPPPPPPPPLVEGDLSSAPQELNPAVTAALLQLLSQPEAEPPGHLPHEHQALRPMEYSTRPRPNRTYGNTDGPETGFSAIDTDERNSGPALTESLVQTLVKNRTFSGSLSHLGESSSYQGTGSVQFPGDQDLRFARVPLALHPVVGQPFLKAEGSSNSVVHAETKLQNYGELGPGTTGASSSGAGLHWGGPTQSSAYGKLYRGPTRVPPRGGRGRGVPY
T1 sequence (Q16531 2-1140 limits assumed, further chain): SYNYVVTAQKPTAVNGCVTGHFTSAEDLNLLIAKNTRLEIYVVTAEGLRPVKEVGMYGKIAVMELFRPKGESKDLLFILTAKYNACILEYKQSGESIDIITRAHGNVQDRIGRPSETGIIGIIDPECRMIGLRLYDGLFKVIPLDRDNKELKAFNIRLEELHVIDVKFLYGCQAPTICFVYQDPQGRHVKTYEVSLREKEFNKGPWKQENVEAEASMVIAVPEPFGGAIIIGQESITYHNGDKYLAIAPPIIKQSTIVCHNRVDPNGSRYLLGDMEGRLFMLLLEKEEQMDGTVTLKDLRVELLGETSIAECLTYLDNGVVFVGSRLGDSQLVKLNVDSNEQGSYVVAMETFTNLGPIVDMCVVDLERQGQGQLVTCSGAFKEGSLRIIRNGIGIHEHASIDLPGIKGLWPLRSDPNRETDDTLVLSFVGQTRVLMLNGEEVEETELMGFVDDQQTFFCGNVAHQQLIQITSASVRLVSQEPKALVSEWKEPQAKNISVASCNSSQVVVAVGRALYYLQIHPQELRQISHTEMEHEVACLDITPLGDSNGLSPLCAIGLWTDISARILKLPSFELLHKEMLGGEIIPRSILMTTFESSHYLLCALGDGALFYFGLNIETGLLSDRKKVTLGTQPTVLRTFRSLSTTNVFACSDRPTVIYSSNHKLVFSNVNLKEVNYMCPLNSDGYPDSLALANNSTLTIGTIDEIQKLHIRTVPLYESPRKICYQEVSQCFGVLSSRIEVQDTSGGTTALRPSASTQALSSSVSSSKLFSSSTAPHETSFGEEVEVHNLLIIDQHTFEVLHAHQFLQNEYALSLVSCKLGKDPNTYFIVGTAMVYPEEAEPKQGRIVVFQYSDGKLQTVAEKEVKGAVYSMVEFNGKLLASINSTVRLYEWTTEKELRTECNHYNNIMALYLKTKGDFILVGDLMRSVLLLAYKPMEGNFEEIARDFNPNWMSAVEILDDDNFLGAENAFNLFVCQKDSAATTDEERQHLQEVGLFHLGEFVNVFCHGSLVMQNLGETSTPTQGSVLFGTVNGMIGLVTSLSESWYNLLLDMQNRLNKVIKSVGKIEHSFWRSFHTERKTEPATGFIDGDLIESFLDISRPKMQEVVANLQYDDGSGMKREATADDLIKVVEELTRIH
T1 sequence (Q13620 whole entry partner): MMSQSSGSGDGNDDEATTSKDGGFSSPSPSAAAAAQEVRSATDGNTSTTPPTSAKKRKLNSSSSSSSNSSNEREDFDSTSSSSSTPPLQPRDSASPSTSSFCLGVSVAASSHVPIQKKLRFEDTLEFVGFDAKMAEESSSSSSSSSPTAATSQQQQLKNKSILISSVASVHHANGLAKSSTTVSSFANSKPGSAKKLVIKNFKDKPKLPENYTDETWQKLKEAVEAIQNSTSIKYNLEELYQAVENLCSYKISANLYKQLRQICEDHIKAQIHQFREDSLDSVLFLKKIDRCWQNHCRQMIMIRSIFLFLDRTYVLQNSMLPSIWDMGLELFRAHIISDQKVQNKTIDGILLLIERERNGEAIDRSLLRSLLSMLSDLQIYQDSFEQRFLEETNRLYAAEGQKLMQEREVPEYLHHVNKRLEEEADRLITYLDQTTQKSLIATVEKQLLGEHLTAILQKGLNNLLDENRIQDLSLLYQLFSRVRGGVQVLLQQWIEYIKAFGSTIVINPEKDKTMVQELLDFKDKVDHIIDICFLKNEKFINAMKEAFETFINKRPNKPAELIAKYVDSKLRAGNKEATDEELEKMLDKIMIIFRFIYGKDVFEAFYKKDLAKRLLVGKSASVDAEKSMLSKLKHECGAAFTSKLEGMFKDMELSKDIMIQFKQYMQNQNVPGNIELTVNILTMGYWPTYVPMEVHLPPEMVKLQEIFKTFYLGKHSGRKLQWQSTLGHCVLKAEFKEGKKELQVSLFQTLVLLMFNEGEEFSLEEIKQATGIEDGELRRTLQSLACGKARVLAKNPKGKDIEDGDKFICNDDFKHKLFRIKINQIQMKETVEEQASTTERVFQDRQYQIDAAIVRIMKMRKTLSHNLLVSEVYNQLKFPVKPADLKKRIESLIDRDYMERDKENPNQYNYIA
T1 sequence (P62877 whole entry partner): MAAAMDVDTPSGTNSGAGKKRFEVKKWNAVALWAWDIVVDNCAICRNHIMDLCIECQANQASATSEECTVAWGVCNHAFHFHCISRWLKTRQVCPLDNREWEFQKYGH
Procedure: (§1) The hypomorphic phenotype of the mutated UBE2M allele in KBM7 cells (KBM7 UBE2M^mut cells) was assessed. In this regard, CRISPR/Cas9-induced mutation of UBE2M inactivated CRL activity including CRL4^CRBN and CRL2^VHL. […] Additionally, CCNK destabilization by all three compounds was validated via time-resolved immunoblots wherein CCNK degradation was evident after two hours (FIG. 19c).
(§2) Subsequently, a total of 53 structurally related analogue compounds in dose-ranging viability assays in KBM7 wildtype- and UBE2M^mut cells was tested to develop a structure-activity relationship for the assayed compounds. This informed on sites amenable for derivatization of analogs (FIG. 20a), and also to the identification of structurally similar small molecules with no measurable activity that are thus suited negative controls. […] CRL activity-dependent degradation of CCNK could be rescued by pharmacologic NAE inhibition and by blocking the ubiquitin activating enzyme UBA1, particularly by pretreating the cells with 1 μM carfilzomib (Selleckchem, S2853), 1 μM MLN4924 (Selleckchem, S7109), 10 μM TAK-243 (MedChemExpress, HY-100487) or 1 μM THZ531 (MedChemExpress HY-103618) (FIG. 19d). Furthermore, treatment with the selective covalent CDK12/13 inhibitor THZ531, which binds to the ATP binding pocket of CDK12/13, rescued CCNK degradation (FIG. 19d) indicating the role of the active site of CDK12/13 for CRL activity-dependent CCNK degradation by the identified compounds (FIG. 19d).
(§3) PBS-washed cell pellets were lysed in 50 mM Tris pH 7.9, 8M Urea and 1% CHAPS and incubated with shaking at 4° C. for at least 30 min. 20 μg of supernatants were run and transferred for detection. Antibodies used: CUL1 (Santa Cruz Biotechnology, sc-1276), CUL2 (Sigma-Aldrich, SAB2501565-100), CUL3 (Cell Signaling Technology, 2759), CUL4A (Cell Signaling Technology, 2699S), CUL4B (Proteintech, 12916-1-AP), CUL5 (Santa Cruz Biotechnology, sc-373822), UBE2M (Santa Cruz Biotechnology, sc-390064), DDB1 (Cell Signaling Technology, 5428S), CCNK (Bethyl, A301-939A), CDK12 (Cell Signaling Technology, 11973S), CDK13 (Bethyl, A301-458A), RBM39 (1:500, Santa Cruz Biotechnology sc-376531), V5 (Cell Signaling Technology, 13202), Ubiquityl-Histone H2A (K119) (Cell Signaling, 8240-20). ACTIN (Sigma-Aldrich, A5441), VINCUL1N (Santa Cruz Biotechnology, sc-25336). Secondary antibodies anti-mouse/rabbit/goat (Jackson ImmunoResearch 115-035-003, 111-035-003 and 705-035-003).
(§4) Comparison of overall proteome-wide changes in KBM7 cells treated with IC020772.1 (2.5 μM), IC021313.2 (7 μM) or T6938051 (3.5 μM) for 5 h and 12h, using quantitative proteomics based on isobaric tagging.

cyclin K (CCNK) = molecular target: T2, cyclin K (CCNK) (Homo sapiens, UniProt Q16531+Q9NYV4); assay: as above; conditions: for effect on CCNK upon inactivation of DDB1, UBE2G1 and UBE2M: CRISPR-inactivated KBM7 cells
T2 construct: endogenous in cells; host or cells: KBM7 cells (WT and UBE2M/CUL4B/UBE2G1 mutant clones)
T2 sequence (O75909 whole entry partner): as the sequence (O75909 whole entry partner) above
T2 sequence (Q9NYV4 whole entry): as the sequence (Q9NYV4 whole entry, further chain) above
T2 sequence (Q16531 2-1140 limits assumed): as the sequence (Q16531 2-1140 limits assumed, further chain) above
T2 sequence (Q13620 whole entry partner): as the sequence (Q13620 whole entry partner) above
T2 sequence (P62877 whole entry partner): as the sequence (P62877 whole entry partner) above
Procedure: as §1, §2, §3, §4

For Cc1ccc(C(=O)N2CSCC2C(=O)N=c2[nH]cc(C)s2)o1 (stereo not shown) [Compound T6938051], the CC50 (UBE2M mutant KBM7 cells) was 7.04 µM, the CCNK destabilization [1] was “destabilization of cyclin K (CCNK)” and the “effect on CCNK upon inactivation of DDB1, UBE2G1 and UBE2M” value (“effect on CCNK upon inactivation of DDB1” for short) (cyclin K (CCNK)) was “abrogated”.

For O=C(CSc1nc2ccccc2[nH]1)Nc1ccc(Cl)cn1 [IC021313.2], the CC50 (UBE2M mutant KBM7 cells) was 10.7 µM, the CCNK destabilization [1] was “destabilization of cyclin K (CCNK)” and the “effect on CCNK upon inactivation of DDB1” value (cyclin K (CCNK)) was “abrogated”. For the same molecule, the “logFC (IC021313.2/DMSO), CCNK (O75909-3)” value (cyclin K (CCNK); expression proteomics, drug vs DMSO, Table 4, log2FC < −0.3) was −0.873.

With O=C(CSc1nnc2c(n1)[nH]c1ccccc12)Nc1ccc(Cl)cn1 [IC020772.1] the CC50 (UBE2M mutant KBM7 cells) was 4.15 µM, the CCNK destabilization [1] was “destabilization of cyclin K (CCNK)” and the “effect on CCNK upon inactivation of DDB1” value (cyclin K (CCNK)) was “abrogated”.
